# Results taken from ChEMBL document CHEMBL1153123, “Antiplasmodial activity of piperazine sulfonamides” (Bioorg Med Chem Lett, 2010).
# Columns and labels:
# Plasmodium falciparum [1] = assay: Antiplasmodial activity against Plasmodium falciparum Dd2 in human O+ erythrocytes after 72 hrs by DAPI staining; assay type: functional, organism-based; details: Dd2, 72 h
# Plasmodium falciparum [2] = assay: Antiplasmodial activity against Plasmodium falciparum 3D7 in human O+ erythrocytes after 72 hrs by DAPI staining; assay type: functional, organism-based; details: 3D7, 72 h
structure (smiles),measurement,setting,value
O=[N+]([O-])c1ccc(S(=O)(=O)N2CCN(Cc3ccccc3)CC2)cc1,EC50,Plasmodium falciparum [1],> 10 µM
O=[N+]([O-])c1ccc(S(=O)(=O)N2CCN(C(=S)NCCc3ccccc3)CC2)cc1,EC50,Plasmodium falciparum [1],0.211 µM
O=[N+]([O-])c1ccc(S(=O)(=O)N2CCN(C(=S)NCC3CCCO3)CC2)cc1 (stereo not drawn),EC50,Plasmodium falciparum [2],0.313 µM
same,EC50,Plasmodium falciparum [1],0.337 µM
O=S(=O)(c1ccc(Cl)cc1)N1CCN(C(=S)NCC2CCCO2)CC1 (stereo not drawn),EC50,Plasmodium falciparum [2],0.667 µM
same,EC50,Plasmodium falciparum [1],0.86 µM
COCCNC(=S)N1CCN(S(=O)(=O)c2ccc([N+](=O)[O-])cc2)CC1,EC50,Plasmodium falciparum [2],0.31 µM
same,EC50,Plasmodium falciparum [1],0.354 µM
O=S(=O)(c1ccc2c(c1)OCCO2)N1CCN(C(=S)NCc2ccccc2)CC1,EC50,Plasmodium falciparum [2],6.49 µM
same,EC50,Plasmodium falciparum [1],> 10 µM
O=C(NCc1ccco1)N1CCN(S(=O)(=O)c2ccc(Cl)cc2)CC1,EC50,Plasmodium falciparum [2],2.55 µM
same,EC50,Plasmodium falciparum [1],2.3 µM
CS(=O)(=O)N1CCN(C(=S)NCc2ccco2)CC1,EC50,Plasmodium falciparum [2],> 10 µM
same,EC50,Plasmodium falciparum [1],> 10 µM
O=S(=O)(c1ccccc1F)N1CCN(C(=S)NCc2ccccc2)CC1,EC50,Plasmodium falciparum [2],2.41 µM
same,EC50,Plasmodium falciparum [1],3.13 µM
O=S(=O)(c1ccc(Cl)cc1)N1CCN(C(=S)NCc2ccc(Cl)cc2)CC1,EC50,Plasmodium falciparum [1],0.4 µM
C/N=C(/SCc1ccccc1)N1CCN(S(=O)(=O)c2ccc([N+](=O)[O-])cc2)CC1,EC50,Plasmodium falciparum [2],11.4 µM
same,EC50,Plasmodium falciparum [1],13 µM
O=S(=O)(c1ccccc1)N1CCN(C(=S)NCc2ccccc2)CC1,EC50,Plasmodium falciparum [2],1.86 µM
same,EC50,Plasmodium falciparum [1],1.92 µM
O=S(=O)(c1ccc(Br)cc1Cl)N1CCN(C(=S)NCc2ccccc2)CC1,EC50,Plasmodium falciparum [2],0.83 µM
same,EC50,Plasmodium falciparum [1],0.873 µM
O=C(NCc1ccco1)N1CCN(S(=O)(=O)c2ccc([N+](=O)[O-])cc2)CC1,EC50,Plasmodium falciparum [2],6.41 µM
same,EC50,Plasmodium falciparum [1],4.48 µM
O=[N+]([O-])c1ccc(S(=O)(=O)N2CCC(C(=S)NCc3ccccc3)CC2)cc1,EC50,Plasmodium falciparum [2],6.06 µM
same,EC50,Plasmodium falciparum [1],6.19 µM
CCOc1ccc(S(=O)(=O)N2CCN(C(=S)NCc3ccccc3)CC2)cc1,EC50,Plasmodium falciparum [2],1.23 µM
same,EC50,Plasmodium falciparum [1],1.96 µM
O=[N+]([O-])c1ccc(S(=O)(=O)N2CCN(C(=S)CCc3ccccc3)CC2)cc1,EC50,Plasmodium falciparum [2],1.25 µM
same,EC50,Plasmodium falciparum [1],1.69 µM
O=S(=O)(c1cccc(F)c1)N1CCN(C(=S)NCc2ccccc2)CC1,EC50,Plasmodium falciparum [2],1.47 µM
same,EC50,Plasmodium falciparum [1],1.97 µM
Cc1cc(Nc2ccccc2)nc(N2CCN(S(=O)(=O)c3ccc([N+](=O)[O-])cc3)CC2)n1,EC50,Plasmodium falciparum [2],11.1 µM
same,EC50,Plasmodium falciparum [1],10 µM
Cc1cc(NCc2ccccc2)nc(N2CCN(S(=O)(=O)c3ccc([N+](=O)[O-])cc3)CC2)n1,EC50,Plasmodium falciparum [2],3.97 µM
same,EC50,Plasmodium falciparum [1],5.81 µM
O=[N+]([O-])c1ccc(S(=O)(=O)N2CCN(C/C=C/c3ccccc3)CC2)cc1,EC50,Plasmodium falciparum [1],6.05 µM
O=[N+]([O-])c1ccc(S(=O)(=O)N2CCN(C(=S)NCc3ccccc3)CC2)cc1,EC50,Plasmodium falciparum [2],0.056 µM
same,EC50,Plasmodium falciparum [1],0.103 µM
O=[N+]([O-])c1ccc(S(=O)(=O)N2CCN(C(=S)NCc3ccco3)CC2)cc1,EC50,Plasmodium falciparum [2],0.064 µM
same,EC50,Plasmodium falciparum [1],0.117 µM
O=C(NCc1ccccc1)C1CCN(S(=O)(=O)c2ccc([N+](=O)[O-])cc2)CC1,EC50,Plasmodium falciparum [2],5.95 µM
same,EC50,Plasmodium falciparum [1],3.74 µM
N=C(NCc1ccccc1)N1CCN(S(=O)(=O)c2ccc([N+](=O)[O-])cc2)CC1,EC50,Plasmodium falciparum [2],> 25 µM
same,EC50,Plasmodium falciparum [1],> 25 µM
O=C(CCc1ccccc1)N1CCN(S(=O)(=O)c2ccc([N+](=O)[O-])cc2)CC1,EC50,Plasmodium falciparum [2],13.5 µM
same,EC50,Plasmodium falciparum [1],13.6 µM
O=S(=O)(c1ccc(F)cc1)N1CCN(C(=S)NCc2ccccc2)CC1,EC50,Plasmodium falciparum [2],0.447 µM
same,EC50,Plasmodium falciparum [1],0.492 µM
CCNC(=S)N1CCN(S(=O)(=O)c2ccccc2C(F)(F)F)CC1,EC50,Plasmodium falciparum [2],> 10 µM
same,EC50,Plasmodium falciparum [1],> 10 µM
O=S(=O)(c1ccc(F)c(F)c1F)N1CCN(C(=S)NCc2ccccc2)CC1,EC50,Plasmodium falciparum [2],1.52 µM
same,EC50,Plasmodium falciparum [1],1.61 µM
O=S(=O)(c1ccc(Cl)cc1)N1CCN(C(=S)NCc2ccco2)CC1,EC50,Plasmodium falciparum [2],0.615 µM
same,EC50,Plasmodium falciparum [1],0.544 µM
O=S(=O)(c1c(Cl)cc(Br)cc1Cl)N1CCN(C(=S)NCc2ccccc2)CC1,EC50,Plasmodium falciparum [2],2.67 µM
same,EC50,Plasmodium falciparum [1],4.41 µM
